{"source": "patent US9932627B2", "about": "“Method for determination of the length of the G-tail sequence and kit for the method” (HIROSHIMA UNIVERSITY, priority 2005, dated 2018)", "key": {"[1]": {"test_system": "HeLa cancer cell", "assay": "Entire telomere length by telomere HPA on denatured DNA (JP 2001-95586, Comparative Example)", "type": "cell-based", "settings": "treated with telomestatin (5 μm) for 48 hours, denatured DNA 0.5 μg, control C = 4700", "description": "(§1) The dominant negative allelic gene (TRF2^ΔBΔM) was infected to various cells (HeLa cancer cell, SiHa cancer cell, MCF-7 cancer cell, MRC-5-hTERT normal fibroblast, and 90p normal mammary epithelial cell) according to a method similar to that in <9-3>; The nondenatured DNA was isolated from each cell (HeLa cancer cell, SiHa cancer cell, MCF-7 cancer cell, MRC-5-hTERT normal fibroblast, and 90p normal mammary epithelial cell) according to a method similar to that in <4-2>; The nondenatured DNA (5 μg) was used in the G tail measuring method according to the present invention for measurement of the G tail length; and, as a Comparative Example, the measuring method described in Japanese Unexamined Patent Publication No. 2001-95586 was applied to each denatured DNA (0.5 μg) for measurement of the entire telomere length. ExoI treatment was performed similarly to the method described in <4-3> and culture of the cells used, similarly to the method described in <9-2>.\n(§2) FIG. 11a is a graph showing the results of measuring G tail by the measuring method according to the invention. FIG. 11b is a graph showing the results of measuring the total telomere length by the measuring method described in Japanese Unexamined Patent Publication No. 2001-95586 as a Comparative Example. In FIG. 11a, “C” represents a control; “T” represents a cell treated with a G tail-shortening medicine telomestatin (5 μm) for 48 hours; represents a ExoI-treated cell; and − represents an untreated cell. […] In FIG. 11b, “C” represents a control; and “T” represents a cell previously treated with a G tail-shortening medicine telomestatin (5 μm) for 48 hours.\n(§3) Thus apparently in the measuring method described in Patent Document 1 (Japanese Unexamined Patent Publication No. 2001-95586), the G tail length gives signal intensity only at a noise level within the range of the operation and measurement error, prohibiting G tail measurement. Then, the values on the ordinate in FIG. 11a were converted to average G tail lengths by using the calibration curve shown in FIG. 2 and the values on the ordinate in FIG. 11b to the entire telomere lengths, to give the following results shown in Table 4."}, "[2]": {"test_system": "MRC-5-hTERT normal fibroblast", "assay": "Entire telomere length by telomere HPA on denatured DNA (JP 2001-95586, Comparative Example)", "type": "cell-based", "settings": "treated with telomestatin (5 μm) for 48 hours, denatured DNA 0.5 μg, control C = 6800", "description": "as §1, §2, §3"}, "[3]": {"test_system": "MCF-7 cancer cell", "assay": "Entire telomere length by telomere HPA on denatured DNA (JP 2001-95586, Comparative Example)", "type": "cell-based", "settings": "treated with telomestatin (5 μm) for 48 hours, denatured DNA 0.5 μg, control C = 4000", "description": "as §1, §2, §3"}, "[4]": {"test_system": "90p normal mammary epithelial cell", "assay": "Entire telomere length by telomere HPA on denatured DNA (JP 2001-95586, Comparative Example)", "type": "cell-based", "settings": "treated with telomestatin (5 μm) for 48 hours, denatured DNA 0.5 μg, control C = 3500", "description": "as §1, §2, §3"}, "[5]": {"test_system": "SiHa cancer cell", "assay": "G tail length measurement by G tail HPA on nondenatured genomic DNA of treated cells", "type": "cell-based, human", "settings": "treated with telomestatin (5 μm) for 48 hours, nondenatured DNA 5 μg, control C = 220", "experimental": "(§4) The hydrolysis of the AE in an unhybridized probe was performed by charging 300 μL of a hydrolysis buffer (0.6 mol/L tetrasodium borate buffer containing 50 mL/L of Triton X-100, pH 8.5) into each reaction tube, stirring the mixture vigorously with a Vortex mixer, and incubating the mixture at 60° C. for 10 minutes. The AE in the hybridized probe was not hydrolyzed under the above-described condition. These tubes were cooled on ice for 1 minute or more, and the chemiluminescence in each tube was measured with a luminometer (trade name: Leader 1, manufactured by Gene Probe Inc.) for 2 seconds.\nFor the confirmation of nondenatured genomic DNA dose response by the measuring method according to the invention, SiHa cancer cell line-derived nondenatured genomic DNA samples in various amounts (1 μg, 3 μg, 5 μg, 10 μg and 20 μg) and the AE-labeled G tail HPA probe in an amount of 3×10^6 rlu were hybridized with each other. Specifically for detection of the telomere 3′-tail (G tail) in genomic DNA, the total amount of the DNA solution in a Falcon 352053 tube (trade name) was adjusted to 100 μL with sterile water or a TE buffer (10 mM Tris/HCl, 1 mM EDTA, pH 8.0). […]"}, "[6]": {"test_system": "HeLa cancer cell", "assay": "G tail length measurement by G tail HPA on nondenatured genomic DNA of treated cells", "type": "cell-based", "settings": "treated with telomestatin (5 μm) for 48 hours, nondenatured DNA 5 μg, control C = 126", "experimental": "as §4\n(§5) For the confirmation of nondenatured genomic DNA dose response by the measuring method according to the invention, SiHa cancer cell line-derived nondenatured genomic DNA samples in various amounts (1 μg, 3 μg, 5 μg, 10 μg and 20 μg) and the AE-labeled G tail HPA probe in an amount of 3×10^6 rlu were hybridized with each other. Specifically for detection of the telomere 3′-tail (G tail) in genomic DNA, the total amount of the DNA solution in a Falcon 352053 tube (trade name) was adjusted to 100 μL with sterile water or a TE buffer (10 mM Tris/HCl, 1 mM EDTA, pH 8.0). The AE-labeled G tail HPA probe in an amount of 3×10^6 rlu dissolved in 100-μL of the hybridization buffer was added to the DNA solution, and the mixture was stirred thoroughly with a Vortex mixer and incubated at 60° C. for 20 minutes. The hydrolysis of the AE in unhybridized probe and the detection of the chemiluminescence were performed under a condition similar to that in <1-2>.\n(§6) In the present invention, the nondenatured genomic DNA may not be isolated for use, but the nondenatured genomic DNA used in the confirmation test <4-1> was previously isolated in the following manner: The nondenatured genomic DNA used for G tail length measurement was isolated from each cell line by using the phenol-chloroform extraction method. Specifically, cells were centrifuged in an Eppendorf-micro centrifuge tube at 6,000 rpm and 4° C. for 5 minutes, to give a pellet in the microtube. The pellet was washed once with PBS(−) and resuspended in an extraction buffer containing 10 mM Tris buffer (pH 7.6), 150 mM NaCl and NP-40, to a final concentration of 0.5%. After proteinase K digestion, phenol-chloroform extraction was performed twice. The genomic DNA was precipitated with ethanol, treated with RNase A, and then, dissolved in a TE buffer. […]"}, "[7]": {"test_system": "MRC-5-hTERT normal fibroblast", "assay": "G tail length measurement by G tail HPA on nondenatured genomic DNA of treated cells", "type": "cell-based", "settings": "treated with telomestatin (5 μm) for 48 hours, nondenatured DNA 5 μg, control C = 96", "experimental": "as §4, §5, §6"}, "[8]": {"test_system": "MCF-7 cancer cell", "assay": "G tail length measurement by G tail HPA on nondenatured genomic DNA of treated cells", "type": "cell-based", "settings": "treated with telomestatin (5 μm) for 48 hours, nondenatured DNA 5 μg, control C = 212", "experimental": "as §4, §5, §6"}, "[9]": {"test_system": "90p normal mammary epithelial cell", "assay": "G tail length measurement by G tail HPA on nondenatured genomic DNA of treated cells", "type": "cell-based", "settings": "treated with telomestatin (5 μm) for 48 hours, nondenatured DNA 5 μg, control C = 98", "experimental": "as §4, §5, §6"}, "[10]": {"test_system": "SiHa cancer cell", "assay": "Entire telomere length by telomere HPA on denatured DNA (JP 2001-95586, Comparative Example)", "type": "cell-based, human", "settings": "treated with telomestatin (5 μm) for 48 hours, denatured DNA 0.5 μg, control C = 4500", "description": "as §1\nFIG. 11a is a graph showing the results of measuring G tail by the measuring method according to the invention. FIG. 11b is a graph showing the results of measuring the total telomere length by the measuring method described in Japanese Unexamined Patent Publication No. 2001-95586 as a Comparative Example. […]"}}}
{"smiles": "Cc1oc2nc1-c1nc(co1)-c1nc(co1)-c1nc(co1)-c1nc(co1)-c1nc(co1)C1=NC(CS1)c1nc-2c(C)o1", "note": "(stereo not shown) [telomestatin]", "values": [{"measurement": "Entire telomere length (nt)", "setting": "[1]", "result": 4600, "unit": "nt"}, {"measurement": "Entire telomere length (nt)", "setting": "[2]", "result": 6750, "unit": "nt"}, {"measurement": "Entire telomere length (nt)", "setting": "[3]", "result": 3900, "unit": "nt"}, {"measurement": "Entire telomere length (nt)", "setting": "[4]", "result": 3450, "unit": "nt"}, {"measurement": "Average G tail length (nt)", "setting": "[5]", "result": 121, "unit": "nt"}, {"measurement": "Average G tail length (nt)", "setting": "[6]", "result": 89, "unit": "nt"}, {"measurement": "Average G tail length (nt)", "setting": "[7]", "result": 96.5, "unit": "nt"}, {"measurement": "Average G tail length (nt)", "setting": "[8]", "result": 162, "unit": "nt"}, {"measurement": "Average G tail length (nt)", "setting": "[9]", "result": 96, "unit": "nt"}, {"measurement": "Entire telomere length (nt)", "setting": "[10]", "result": 4600, "unit": "nt"}]}
